US10273241B2 (President and Fellows of Harvard College, priority 2013, dated 2019)

Tested on: MV4;11
Assay: Cell growth assay, MV4;11 AML cell line
Type: cell-based, human
Conditions: Homo sapiens, MV4-11, 240 h; day 10; cells passaged, fresh compound added on days 3 and 7; read-out: MV 4;11 GI50 day 10
Method: (§1) For all other cell lines, compounds were serially diluted in medium and dispensed in triplicate in 96-well plates (0.1% DMSO final for assay) followed by the addition of exponentially growing cells at densities ranging from 5,000 to 30,000 cells/well. Cells were also seeded into 2 additional control wells containing vehicle (0.1% DMSO). […] To determine the estimated cell number in each well, cells that were counted in the control well were diluted 3-fold for an 8-point dilution series, and transferred to 384-well plates in duplicate, 20 μL per well. Cells in all other wells were diluted 4-fold and transferred to 384-well plates in duplicate, 20 μL per well. 20 μL of CellTiter-Glo (Promega) was subsequently added to all wells and luminescence was detected using a SPECTRAmax M3. The control well dilution series was fit to a linear regression and used as a standard for calculating the estimated cell number for each well. For days 7 and 10, total estimated cell number represents the split-adjusted theoretical cell number.

| Structure (SMILES) | GI50 [nM] |
| --- | --- |
| C[C@]12CC=C3C=C4CC[C@H](N5CC[C@@H](F)C5)C[C@]45CC[C@]3(O5)[C@@H]1CC[C@@H]2c1ccc2ccncc2c1 [35B, β-(R)-3-fluoropyrrolidine] | 80 |
| C[C@]12CC=C3C=C4CC[C@H](N5CC[C@H](F)C5)C[C@]45CC[C@]3(O5)[C@@H]1CC[C@@H]2c1ccc2ccncc2c1 [36B, β-(S)-3-fluoropyrrolidine] | 19 |
| C[C@]12CC=C3C=C4CC[C@H](N5CCC(F)(F)C5)C[C@]45CC[C@]3(O5)[C@@H]1CC[C@@H]2c1ccc2ccncc2c1 [37B, β-3,3-difluoropyrrolidine] | 65 |
| C[C@]12CC=C3C=C4CC[C@H](N5CCC6(COC6)C5)C[C@]45CCC3(O5)[C@@H]1CCC2c1ccc2ccncc2c1 (stereo partly drawn) [38B, β-2-oxa-6-azaspiro[3.4]octane] | 10 |
| C[C@]12CC=C3C=C4CC[C@H](NC5CC5)C[C@]45CCC3(O5)[C@@H]1CCC2c1ccc2ccncc2c1 (stereo partly drawn) [39B, β-cyclopropylamine] | 17 |
| CN(C1CC1)[C@H]1CCC2=CC3=CC[C@]4(C)C(c5ccc6ccncc6c5)CC[C@H]4C34CC[C@]2(C1)O4 (stereo partly drawn) [40B, β-Cyclopropylmethylamine] | 16 |
| CC1(N[C@H]2CCC3=CC4=CC[C@]5(C)C(c6ccc7ccncc7c6)CC[C@H]5C45CC[C@]3(C2)O5)COC1 (stereo partly drawn) [41B, β-3-methyl-3-oxetanamine] | 8 |
| CN(CC1(C)COC1)[C@H]1CCC2=CC3=CC[C@]4(C)[C@@H](c5ccc6ccncc6c5)CC[C@H]4[C@@]34CCC2(C1)O4 [42B, β-N-methyl-1-(3-methyl-3-oxetanyl)methanamine] | 7.5 |
| CC(C)(C)N[C@@H]1CCC2=CC3=CC[C@]4(C)C(c5ccc6ccncc6c5)CC[C@H]4C34CC[C@]2(C1)O4 (stereo partly drawn) [43A, α-t-butylamine] | 175 |

Further lines, results first:

| GI50 [nM] | Structure (SMILES) |
| --- | --- |
| 95 | CC(C)(C)N[C@H]1CCC2=CC3=CC[C@]4(C)C(c5ccc6ccncc6c5)CC[C@H]4C34CC[C@]2(C1)O4 (stereo partly drawn) [43B, β-t-butylamine] |
| 20 | C[C@]12CC=C3C=C4CC[C@H](N)CC45CC[C@]3(O5)[C@@H]1CC[C@@H]2c1ccc2ccncc2c1 [62B, β-primaryamine] |
| 3 | C[C@]12CC=C3C=C4CC[C@H](N5C[C@H](O)C[C@H]5C(=O)O)C[C@]45CCC3(O5)[C@@H]1CCC2c1ccc2ccncc2c1 (stereo partly shown) [65B] |
| 9.5 | CC1(O)CN([C@@H]2CCC3=CC4=CC[C@]5(C)[C@@H](c6ccc7ccncc7c6)CC[C@H]5C45CC[C@]3(C2)O5)C1 [69A, α-hydroxymethylazetidine] |
| 7 | C[C@]12CC=C3C=C4CC[C@@H](N5CC(O)C5)C[C@]45CCC3(O5)[C@@H]1CC[C@@H]2c1ccc2ccncc2c1 [70A, α-hydroxyazetidine] |
| 2 | C[C@]12CC=C3C=C4CC[C@@H](NCCS(N)(=O)=O)C[C@]45CCC3(O5)[C@@H]1CC[C@@H]2c1ccc2ccncc2c1 [71A] |
| 18 | C[C@]12CC=C3C=C4CC[C@H](NCCS(N)(=O)=O)C[C@]45CCC3(O5)[C@@H]1CC[C@@H]2c1ccc2ccncc2c1 [71B] |
| 8 | C[C@]12CC=C3C=C4CC[C@@H](NCC5(O)COC5)CC45CC[C@]3(O5)[C@@H]1CC[C@@H]2c1ccc2ccncc2c1 [72A, α-hydroxyaminomethyloxetane] |

Same assay, conditions: day 10; cells passaged, fresh compound added on days 3 and 7; read-out: MV 4;11 GI50 day 10

| Structure (SMILES) | GI50 [nM] |
| --- | --- |
| C[C@]12CC=C3C=C4CC[C@@H](O)CC45CC[C@]3(O5)[C@@H]1CC[C@@H]2c1ccc2ccncc2c1 [17A, α-alcohol] | 1 |
| CO[C@@H]1CCC2=CC3=CC[C@]4(C)[C@@H](c5ccc6ccncc6c5)CC[C@H]4[C@@]34CCC2(C1)O4 [64A, α-methylether] | 15 |
| CNC(=O)O[C@@H]1CCC2=CC3=CC[C@]4(C)[C@@H](c5ccc6ccncc6c5)CC[C@H]4[C@@]34CCC2(C1)O4 [68A, α-monomethylcarbamate] | 120 |

Tested on: MOLM-14
Assay: Cell growth assay, MOLM-14 AML cell line
Type: cell-based, human
Conditions: Homo sapiens, MOLM-14, 240 h; day 10; cells passaged, fresh compound added on days 3 and 7; read-out: MOL M14 G150 day 10
Method: as §1

| Structure (SMILES) | GI50 [nM] |
| --- | --- |
| C[C@]12CC=C3C=C4CC[C@H](N5CC[C@@H](F)C5)C[C@]45CC[C@]3(O5)[C@@H]1CC[C@@H]2c1ccc2ccncc2c1 [35B, β-(R)-3-fluoropyrrolidine] | 160 |
| C[C@]12CC=C3C=C4CC[C@H](N5CC[C@H](F)C5)C[C@]45CC[C@]3(O5)[C@@H]1CC[C@@H]2c1ccc2ccncc2c1 [36B, β-(S)-3-fluoropyrrolidine] | 95 |
| C[C@]12CC=C3C=C4CC[C@H](N5CCC(F)(F)C5)C[C@]45CC[C@]3(O5)[C@@H]1CC[C@@H]2c1ccc2ccncc2c1 [37B, β-3,3-difluoropyrrolidine] | 200 |
| C[C@]12CC=C3C=C4CC[C@H](N5CCC6(COC6)C5)C[C@]45CCC3(O5)[C@@H]1CCC2c1ccc2ccncc2c1 (stereo partly drawn) [38B, β-2-oxa-6-azaspiro[3.4]octane] | 10 |
| C[C@]12CC=C3C=C4CC[C@H](NC5CC5)C[C@]45CCC3(O5)[C@@H]1CCC2c1ccc2ccncc2c1 (stereo partly drawn) [39B, β-cyclopropylamine] | 30 |
| CN(C1CC1)[C@H]1CCC2=CC3=CC[C@]4(C)C(c5ccc6ccncc6c5)CC[C@H]4C34CC[C@]2(C1)O4 (stereo partly drawn) [40B, β-Cyclopropylmethylamine] | 25 |
| CC1(N[C@H]2CCC3=CC4=CC[C@]5(C)C(c6ccc7ccncc7c6)CC[C@H]5C45CC[C@]3(C2)O5)COC1 (stereo partly drawn) [41B, β-3-methyl-3-oxetanamine] | 16 |
| CN(CC1(C)COC1)[C@H]1CCC2=CC3=CC[C@]4(C)[C@@H](c5ccc6ccncc6c5)CC[C@H]4[C@@]34CCC2(C1)O4 [42B, β-N-methyl-1-(3-methyl-3-oxetanyl)methanamine] | 20 |
| CC(C)(C)N[C@@H]1CCC2=CC3=CC[C@]4(C)C(c5ccc6ccncc6c5)CC[C@H]4C34CC[C@]2(C1)O4 (stereo partly drawn) [43A, α-t-butylamine] | 200 |

More lines, now with the values ahead:

| GI50 [nM] | Structure (SMILES) |
| --- | --- |
| 150 | CC(C)(C)N[C@H]1CCC2=CC3=CC[C@]4(C)C(c5ccc6ccncc6c5)CC[C@H]4C34CC[C@]2(C1)O4 (stereo partly drawn) [43B, β-t-butylamine] |
| 70 | C[C@]12CC=C3C=C4CC[C@H](N)CC45CC[C@]3(O5)[C@@H]1CC[C@@H]2c1ccc2ccncc2c1 [62B, β-primaryamine] |
| 16 | C[C@]12CC=C3C=C4CC[C@H](N5C[C@H](O)C[C@H]5C(=O)O)C[C@]45CCC3(O5)[C@@H]1CCC2c1ccc2ccncc2c1 (stereo partly shown) [65B] |
| 30 | CC1(O)CN([C@@H]2CCC3=CC4=CC[C@]5(C)[C@@H](c6ccc7ccncc7c6)CC[C@H]5C45CC[C@]3(C2)O5)C1 [69A, α-hydroxymethylazetidine] |
| 12 | C[C@]12CC=C3C=C4CC[C@@H](N5CC(O)C5)C[C@]45CCC3(O5)[C@@H]1CC[C@@H]2c1ccc2ccncc2c1 [70A, α-hydroxyazetidine] |
| 20 | C[C@]12CC=C3C=C4CC[C@@H](NCCS(N)(=O)=O)C[C@]45CCC3(O5)[C@@H]1CC[C@@H]2c1ccc2ccncc2c1 [71A] |
| 50 | C[C@]12CC=C3C=C4CC[C@H](NCCS(N)(=O)=O)C[C@]45CCC3(O5)[C@@H]1CC[C@@H]2c1ccc2ccncc2c1 [71B] |
| 4 | C[C@]12CC=C3C=C4CC[C@@H](NCC5(O)COC5)CC45CC[C@]3(O5)[C@@H]1CC[C@@H]2c1ccc2ccncc2c1 [72A, α-hydroxyaminomethyloxetane] |

Same assay, conditions: day 10; cells passaged, fresh compound added on days 3 and 7; read-out: MOL M14 G150 day 10

| Structure (SMILES) | GI50 [nM] |
| --- | --- |
| C[C@]12CC=C3C=C4CC[C@@H](O)CC45CC[C@]3(O5)[C@@H]1CC[C@@H]2c1ccc2ccncc2c1 [17A, α-alcohol] | 6 |
| CO[C@@H]1CCC2=CC3=CC[C@]4(C)[C@@H](c5ccc6ccncc6c5)CC[C@H]4[C@@]34CCC2(C1)O4 [64A, α-methylether] | 45 |
| CNC(=O)O[C@@H]1CCC2=CC3=CC[C@]4(C)[C@@H](c5ccc6ccncc6c5)CC[C@H]4[C@@]34CCC2(C1)O4 [68A, α-monomethylcarbamate] | 150 |
